# Measured values taken from PubChem BioAssay AID2060898 (Molecular Pharmacology Branch, DTP, NCI, 2025).
# Test system: 616215-338-R-J1-PDC complex spheroid viability
# Assay: Anticancer human tumor 616215-338-R-J1-PDC patient-derived colon adenocarcinoma cell line growth inhibition [RAS]
# Conditions: for IC50: curve of first compound; for viability, T/C: stronger effect = lower value
# Excerpt: RAS pathway inhibitors in Combinations in Complex Spheroids
# A high-throughput screen of multi-cell type tumor spheroids was designed to identify active combinations of RAS pathway inhibitors and targeted small molecules. Complex spheroids include a stromal component modeled by human endothelial cells (HUVEC) and fibroblasts modeled by human mesenchymal stem cells (MSCs). The concentration ranges selected for each drug and investigational agent were based upon clinically achievable concentrations if the clinical Cmax of the agent was known.
# Compounds. The drugs and investigational agents: abemaciclib (NSC768073), cobimetinib (NSC768068), divarasib (GDC6063, NSC841802), docetaxel (NSC628503), GDC-1971 (RLY-1971, NSC841576), gemcitabine (NSC613327), inavolisib (NSC800729), ipatasertib (NSC767898), KB-0742 (NSC834161), MRTX-1133 (NSC836407), osimertinib (NSC779217), RMC-4630 (NSC839698), RMC-6236 (NSC851965), RMC-6291 (NSC852671), Ro-3306 (NSC812927), sapanisertib (NSC764658), SN-38 (NSC673596), staurosporine (NSC755774), SY5609 (NSC837396), and tovorafenib (DAY101, NSC766906), were obtained from the National Cancer Institute (NCI) Developmental Therapeutics Program Chemical Repository. The FDA-approved anticancer drug set is available from the NCI Developmental Therapeutics Program. […] The stock solutions were prepared in dimethyl sulfoxide (DMSO, Sigma-Aldrich, St. Louis, MO, cat. D2650) at 800-fold the tested concentration and stored at -70 degrees C prior to their use. All drugs and investigational agents were tested over a range starting from a high concentration at or near the clinical Cmax and decreasing in half-log increments. If the clinical Cmax for an agent had not been determined, the highest concentration tested was 10 microM.
# Cell Culture. All cells were maintained in an incubator at 37 degrees C and 5% CO2 with 95% humidity. The PDC lines were cultured according to standard operating procedures established by the NCI PDMR. All PDCs were thawed and cultured in Matrigel-coated flasks prepared with a working solution of 1X Ham's F-12 nutrient mix, without supplementation (Invitrogen, Waltham, MA, cat. 11765054), 100 U/mL penicillin-streptomycin (Invitrogen, cat. 15140122), and 2.5% Matrigel (Corning Inc., Corning, NY, cat. 354248) for the first three passages. The 362531-283-R-J2-PDC and 782815-120-R-J1-PDC lines were cultured in 6C/Colon 1B media, which includes advanced DMEM/F-12 (Thermo Fisher Scientific, cat. 12634028), 10 mM HEPES (Thermo Fisher Scientific, cat. 15630080), 1X GlutaMAX supplement (Thermo Fisher Scientific, cat. 35050061), 0.1 mg/mL primocin (InvivoGen, San Diego, CA, cat. ant-pm-2), 10% defined fetal bovine serum, heat inactivated (HyClone Laboratories Inc., Logan, UT, cat. SH30070.03HI), 50% L-WRN conditioned media (ATCC, cat. CRL-3276), 1.25 mM N-Acetyl-L-cysteine (Sigma-Aldrich, cat. A9165), 10 mM nicotinamide (Sigma-Aldrich, cat. N0636), 1X B-27 supplement (Thermo Fisher Scientific, cat. 17504044), 1X N-2 supplement (Thermo Fisher Scientific, cat. 17502048), 50 ng/mL human EGF (Thermo Fisher Scientific, cat. PHG0311), and 10 microM Y-27632 dihydrochloride (Tocris Bioscience, cat. 1254). The K12877-001-R-J1-PDC line was cultured in 6I media, which includes all 6C/Colon 1B media plus 10 ng/mL human FGF-10 (PeproTech, cat. 100-26), 1 ng/mL human FGF-2 (PeproTech, cat. 100-18B), 1 µM prostaglandin E2 (Tocris Bioscience, cat. 2296), […] hydrocortisone (Sigma-Aldrich, cat. H4001), and […] bovine insulin (Sigma-Aldrich, cat. I6634). The K86415-001-R-J1-PDC line was cultured in 6D media, which includes all 6C/Colon 1B media components minus the L-WRN conditioned media. The 485176-168-R4-J1-PDC was cultured in PANC media, which includes all 6C/Colon 1B media plus 100 ng/mL human FGF-10 (PeproTech, cat. 100-26), 500 nM SB-431542 (Selleckchem, cat. S1067), and 10 nM gastrin (Tocris Bioscience, cat. 3006). […]
# 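Further: spheroids exposed to agents for seven days before viability readout.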
# 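Wherever viability, T/C is given: 100% = DMSO vehicle control viability.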
compound,measurement,setting,value
CCN1CCN(Cc2ccc(Nc3ncc(F)c(-c4cc(F)c5nc(C)n(C(C)C)c5c4)n3)nc2)CC1 + C=CC(=O)N1CCN(c2nc(OCC3CCCN3C)nc3c(F)c(-c4nc(N)cc(C)c4C(F)(F)F)c(Cl)cc23)C(C)C1,IC50,second compound 0.00316 µM,> 1000 nM
same,IC50,second compound 0.01 µM,> 1000 nM
same,IC50,second compound 0.0316 µM,> 1000 nM
same,IC50,second compound 0.1 µM,> 1000 nM
same,IC50,second compound 0.316 µM,> 1000 nM
same,IC50,second compound 1 µM,> 1000 nM
same,"viability, T/C","second compound 0.00316 µM, first compound 0.00316 µM",110%
same,"viability, T/C","second compound 0.00316 µM, first compound 0.01 µM",110%
same,"viability, T/C","second compound 0.00316 µM, first compound 0.0316 µM",121%
same,"viability, T/C","second compound 0.00316 µM, first compound 0.1 µM",118%
same,"viability, T/C","second compound 0.00316 µM, first compound 0.316 µM",150%
same,"viability, T/C","second compound 0.00316 µM, first compound 1 µM",65%
same,"viability, T/C","second compound 0.01 µM, first compound 0.00316 µM",112%
same,"viability, T/C","second compound 0.01 µM, first compound 0.01 µM",120%
same,"viability, T/C","second compound 0.01 µM, first compound 0.0316 µM",114%
same,"viability, T/C","second compound 0.01 µM, first compound 0.1 µM",123%
same,"viability, T/C","second compound 0.01 µM, first compound 0.316 µM",145%
same,"viability, T/C","second compound 0.01 µM, first compound 1 µM",56.2%
same,"viability, T/C","second compound 0.0316 µM, first compound 0.00316 µM",113%
same,"viability, T/C","second compound 0.0316 µM, first compound 0.01 µM",124%
same,"viability, T/C","second compound 0.0316 µM, first compound 0.0316 µM",116%
same,"viability, T/C","second compound 0.0316 µM, first compound 0.1 µM",119%
same,"viability, T/C","second compound 0.0316 µM, first compound 0.316 µM",143%
same,"viability, T/C","second compound 0.0316 µM, first compound 1 µM",71.4%
same,"viability, T/C","second compound 0.1 µM, first compound 0.00316 µM",102%
same,"viability, T/C","second compound 0.1 µM, first compound 0.01 µM",102%
same,"viability, T/C","second compound 0.1 µM, first compound 0.0316 µM",118%
same,"viability, T/C","second compound 0.1 µM, first compound 0.1 µM",117%
same,"viability, T/C","second compound 0.1 µM, first compound 0.316 µM",141%
same,"viability, T/C","second compound 0.1 µM, first compound 1 µM",64.2%
same,"viability, T/C","second compound 0.316 µM, first compound 0.00316 µM",114%
same,"viability, T/C","second compound 0.316 µM, first compound 0.01 µM",109%
same,"viability, T/C","second compound 0.316 µM, first compound 0.0316 µM",113%
same,"viability, T/C","second compound 0.316 µM, first compound 0.1 µM",131%
same,"viability, T/C","second compound 0.316 µM, first compound 0.316 µM",131%
same,"viability, T/C","second compound 0.316 µM, first compound 1 µM",59.3%
same,"viability, T/C","second compound 1 µM, first compound 0.00316 µM",117%
same,"viability, T/C","second compound 1 µM, first compound 0.01 µM",116%
same,"viability, T/C","second compound 1 µM, first compound 0.0316 µM",109%
same,"viability, T/C","second compound 1 µM, first compound 0.1 µM",120%
same,"viability, T/C","second compound 1 µM, first compound 0.316 µM",154%
same,"viability, T/C","second compound 1 µM, first compound 1 µM",67.7%
